{"source": "patent US12190997B2", "about": "“Genetically altered LysM receptors with altered agonist specificity and affinity” (Aarhus Universitet, priority 2018, dated 2025)", "key": {"[1]": {"molecular_target": "T1, NFP L147D/L154D mutant (Medicago truncatula, UniProt Q0GXS4, L147D/L154D)", "T1 construct": "The Medicago truncatula NFP ectodomain (residues 28-246) was codon-optimized; AcMNPV gp67 signal peptide (replaces native residues 1-27) (N, cleaved yes); made in house; host or cells: Sf9 insect cells (Spodoptera frugiperda), baculovirus, secreted into the medium", "assay": "BLI binding of NFP L147D/L154D mutant ectodomain to S. meliloti LCO-IV", "excerpt": "Creation of NFP point mutations: The NFP leucine residues L147 and L154 were replaced with aspartate residues. Aspartate is similar in size to leucine, but negatively charged where leucine is hydrophobic. Point mutants of NFP were engineered using site-directed mutagenesis. In particular, a double-mutated NFP was engineered where the leucine residues L147 and L154 were replaced with aspartate residues to create the mutant NFP L147D L154D. Point mutated versions of NFP were expressed and purified as described in Example 1.\nNFP mutant binding assays: The binding assay using NFP wild type (WT) protein was replicated seven times, while the binding assay using the NFP mutant NFP L147D L154D was replicated four times.\nBiolayer interferometry (BLI): Binding of NFP WT and NFP L147D/L154D mutant to S. meliloti LCO-IV was measured on an Octet RED 96 system (Pall ForteBio). S. meliloti LCO consists of a tetrameric/pentameric N-acetylglucosamine backbone that is O-sulfated on the reducing terminal residue, O-acetylated on the non-reducing terminal residue, and mono-N-acylated by unsaturated C16 acyl groups. Biotinylated ligand conjugates were immobilized on streptavidin biosensors (kinetic quality, Pall ForteBio) at a concentration of 125-250 nM for 5 minutes. The binding assays were replicated 7 times for the NFP WT, and 4 times for the NFP L147D/L154D mutant. Data analysis was performed in GraphPad Prism 6 software (GraphPad Software, Inc.). Equilibrium dissociation constants derived from the steady-state were determined by applying a non-linear regression (one site, specific binding) to the response at equilibrium plotted against the protein concentration. Kinetic parameters were determined by non-linear regression (association followed by dissociation) on the subtracted data. Binding of A. thaliana CERK1 (AtCERK1) to chitopentaose (CO5) and chitooctaose (CO8) was measured in the same way."}, "[2]": {"system": "L. japonicus nfr1-1 mutant roots", "assay": "Nodulation complementation of L. japonicus nfr1-1 mutants with LjNFR1/MtLYK3 chimeras, M. loti R7A", "format": "in vivo, Lotus japonicus", "conditions": "35 days post inoculation with M. loti R7A", "excerpt": "Complementation assay: Construct assembly, plant growth conditions, hairy root transformations, nodulation and ROS assays were generally conducted as described in Bozsoki et al. (2017) (Bozsoki Z, Cheng J, Feng F, Gysel K, Vinther M, Andersen K R, Oldroyd G, Blaise M, Radutoiu S, Stougaard J (2017) Receptor-mediated chitin perception in legume roots is functionally separable from Nod factor perception. Proc Natl Acad Sci 114: E8118-E8127). A general schematic of the construct is provided in FIG. 3, whereby the pNFR1 promoter was used to drive the chimeric constructs. The tested chimeric receptors in Lotus are depicted as block diagrams below the graph in FIG. 7, where NFR1 domains are shown in white and LYK3 domains are shown in grey, and transverse lines across the block depicting the LysM1 domain indicate sections II and IV. […] Nodules were counted on hairy root transformed L. japonicus nfr1-1 mutant roots 35 days post inoculation with M. loti R7Å. M. loti R7A is the cognate N-fixing bacterial strain for L. japonicus, and is not recognized by M. truncatula."}, "[3]": {"system": "Medicago nfp mutants", "assay": "Complementation (nodulation) of Medicago nfp mutants, inoculation with S. meliloti strain 2011", "format": "in vivo, Medicago truncatula", "conditions": "6-7 weeks after inoculation with S. meliloti strain 2011, hairy root transformation", "excerpt": "(§1) Complementation assay: Construct assembly, plant growth conditions, hairy root transformations, nodulation and ROS assays were generally conducted as described in Bozsoki et al. (2017) (Bozsoki Z, Cheng J, Feng F, Gysel K, Vinther M, Andersen K R, Oldroyd G, Blaise M, Radutoiu S, Stougaard J (2017) Receptor-mediated chitin perception in legume roots is functionally separable from Nod factor perception. Proc Natl Acad Sci 114: E8118-E8127). The tested transgenes were the mutated LysM receptors described in Example 2."}, "[4]": {"system": "Medicago nfp mutants", "assay": "Complementation (nodulation) of Medicago nfp mutants, inoculation with S. medicae", "format": "in vivo, Medicago truncatula", "excerpt": "as §1\nThese complementation experiments were repeated using S. medicae inoculation, which has been reported to nodulate Medicago with higher efficiency. The results shown in FIG. 4B are complementation tests where the plants were inoculated with S. medicae."}}, "data": [{"molecule": "CCCCCC/C=C\\CCCCC/C=C/C(=O)N[C@H]1[C@H](O[C@H]2[C@H](O)[C@@H](NC(C)=O)[C@H](O[C@H]3[C@H](O)[C@@H](NC(C)=O)[C@H](O[C@H]4[C@H](O)[C@@H](NC(C)=O)C(O)O[C@@H]4COS(=O)(=O)O)O[C@@H]3CO)O[C@@H]2CO)O[C@H](COC(C)=O)[C@@H](O)[C@@H]1O", "note": "(some centres unmarked) [S. meliloti LCO-IV]", "values": [{"measurement": "association rate (kon) faster compared to WT NFP-ECD", "setting": "[1]; FIGS. 19A-19C", "value": 4.5, "unit": "fold"}, {"measurement": "dissociation rate (koff) increased compared to WT NFP-ECD", "setting": "[1]; FIGS. 19A-19C", "value": 59, "unit": "fold"}, {"measurement": "Kd", "setting": "[1]; S. meliloti LCO-IV, FIG. 2B", "value": "48 ± 1", "unit": "µM"}, {"measurement": "Kd", "setting": "[1]; purified L147D/L154D NFP-ECD, FIGS. 19A-19C", "value": "167 ± 4.2", "unit": "µM"}, {"measurement": "affinity compared with NFP WT", "setting": "[1]; S. meliloti LCO-IV, FIG. 2B", "value": "approximately two times lower affinity"}, {"measurement": "association (Kon) compared with NFP WT", "setting": "[1]; S. meliloti LCO-IV, FIG. 2B", "value": "almost unaffected"}, {"measurement": "dissociation (Koff) faster than NFP WT", "setting": "[1]; S. meliloti LCO-IV, FIG. 2B", "value": "approximately 15 times"}]}, {"molecule": "LjCERK6: unaltered Lotus CERK6 chitin receptor protein (SEQ ID NO:34), negative control (protein) MEHPRLGFPITLLLFSFILLPSTSQSKCTHGCALAQASYYLLNGSNLTYISEIMQSSLLTKPEDIVSYNQDTIASKDSVQAGQRINVPFPCDCIEGEFLGHTFQYDVQKGDRYDTIAGTNYANLTTVEWLRRFNSYPPDNIPDTGTLNVTVNCSCGDSGVGDYGLFVTYPLRPGETLGSVASNVKLDSALLQKYNPNVNFNQGSGIVYIPAKDQNGSYVLLGSSSGGLAGGAIAGIAAGVAVCLLLLAGFIYVGYFRKKRIQKEELLSQETRAIFPQDGKDENPRSTVNETPGPGGPAAMAGITVDKSVEFSYDELATATDNFSLANKIGQGGFGSVYYAELRGERAAIKKMDMQASKEFLAELKVLTRVHHLNLVRLIGYSIEGSLFLVYEFIENGNLSQHLRGSGRDPLPWATRVQIALDSARGLEYIHEHTVPVYIHRDIKSANILIDKNYRGKVADFGLTKLTEVGSSSLPTGRLVGTFGYMPPEYAQYGDVSPKVDVYAFGVVLYELISAKDAIVKTSESITDSKGLVALFEGVLSQPDPTEDLRKLVDQRLGDNYPVDSVRKMAQLAKACTQDNPQLRPSMRSIVVALMTLSSTTDDWDVGSFYENQNLVNLMSGR", "values": [{"measurement": "complementation (nodulation)", "setting": "[2]", "value": "zero nodulation"}]}, {"molecule": "wild type Nfp gene: wild type Medicago NFP LysM receptor transgene used for hairy root complementation (protein, UniProt Q0GXS4 28-595, looked up) Serine/threonine …: QPLYISETNFTCPVDSPPSCETYVAYRAQSPNFLSLSNISDIFNLSPLRIAKASNIEAEDKKLIPDQLLLVPVTCGCTKNHSFANITYSIKQGDNFFILSITSYQNLTNYLEFKNFNPNLSPTLLPLDTKVSVPLFCKCPSKNQLNKGIKYLITYVWQDNDNVTLVSSKFGASQVEMLAENNHNFTASTNRSVLIPVTSLPKLDQPSSNGRKSSSQNLALIIGISLGSAFFILVLTLSLVYVYCLKMKRLNRSTSSSETADKLLSGVSGYVSKPTMYEIDAIMEGTTNLSDNCKIGESVYKANIDGRVLAVKKIKKDASEELKILQKVNHGNLVKLMGVSSDNDGNCFLVYEYAENGSLEEWLFSESSKTSNSVVSLTWSQRITIAMDVAIGLQYMHEHTYPRIIHRDITTSNILLGSNFKAKIANFGMARTSTNSMMPKIDVFAFGVVLIELLTGKKAMTTKENGEVVILWKDFWKIFDLEGNREERLRKWMDPKLESFYPIDNALSLASLAVNCTADKSLSRPTIAEIVLCLSLLNQPSSEPMLERSLTSGLDAEATHVVTSVIAR", "values": [{"measurement": "nodules per plant", "setting": "[3]", "value": 10, "unit": "nodules per plant"}]}, {"molecule": "double mutant construct (L147D/L154D): Medicago NFP with leucine residues L147 and L154 replaced with aspartate (hydrophobic patch mutant) (protein, UniProt Q0GXS4 28-595, looked up, variant L147D L154D) Serine/threonine …: QPLYISETNFTCPVDSPPSCETYVAYRAQSPNFLSLSNISDIFNLSPLRIAKASNIEAEDKKLIPDQLLLVPVTCGCTKNHSFANITYSIKQGDNFFILSITSYQNLTNYLEFKNFNPNDSPTLLPDDTKVSVPLFCKCPSKNQLNKGIKYLITYVWQDNDNVTLVSSKFGASQVEMLAENNHNFTASTNRSVLIPVTSLPKLDQPSSNGRKSSSQNLALIIGISLGSAFFILVLTLSLVYVYCLKMKRLNRSTSSSETADKLLSGVSGYVSKPTMYEIDAIMEGTTNLSDNCKIGESVYKANIDGRVLAVKKIKKDASEELKILQKVNHGNLVKLMGVSSDNDGNCFLVYEYAENGSLEEWLFSESSKTSNSVVSLTWSQRITIAMDVAIGLQYMHEHTYPRIIHRDITTSNILLGSNFKAKIANFGMARTSTNSMMPKIDVFAFGVVLIELLTGKKAMTTKENGEVVILWKDFWKIFDLEGNREERLRKWMDPKLESFYPIDNALSLASLAVNCTADKSLSRPTIAEIVLCLSLLNQPSSEPMLERSLTSGLDAEATHVVTSVIAR", "values": [{"measurement": "complementation", "setting": "[4]", "value": "complements poorly"}, {"measurement": "nodules per plant", "setting": "[3]", "value": "did not develop any nodules"}]}]}
